Reference: patent US20110059909A1, “METHODS FOR TREATING INFLAMMATORY DISORDERS” (priority 2004, published 2011)

Legend:
[1] = cited from earlier work
GalT-2 = GalT-2 protein level by immunoblot after antisense transfection; assay type: cell-based, rat; conditions: 48 h after transfection, 200 nM oligo
Experimental: For iNOS protein, the cells were washed with cold Tris buffered saline (TBS; 20 mM Trizma base, and 137 mM NaCl, pH 7.5), lysed in 1×SDS sample loading buffer (62.5 mM Trizma base, 2% w/v SDS, 10% glycerol), following sonication and centrifugation at 15,000×g for 5 min, the supernatant was used for the iNOS western immunoblot assay. The protein concentration of samples was determined with the detergent compatible protein assay reagent (Bio-Rad Laboratories, CA) using bovine serum albumin (BSA) as the standard. Sample was boiled for 3 min with 0.1 volumes of 10% β-mercaptoethanol and 0.5% bromophenol blue mix. […] The membranes were detected by autoradiography using ECL-plus (Amersham Pharmacia Biotech) after washing with TBST buffer.
A 20-mer antisense oligonucleotide of the following sequence (5′-CGCTTGAGCGCAGACATCTT-3′, SEQ ID NO:1) targeted against rat lactosylceramide synthase (GalT-2) were synthesized by Integrated DNA Technology. […] Cells were counted and plated a day before transfection and the following day were treated with Oligofectamine (Invitrogen)-oligonucleotide complexes (200 nM oligo) under serum free conditions. 48 h following transfection, the protein levels of GalT-2 were analyzed using polyclonal antibodies raised against rat GalT-2 (Abjent Inc., CA). […]

Compound | Solubility in water [1] | GalT-2 protein levels (GalT-2)
CCCCCCCCCC(=O)NC(CN1CCOCC1)C(O)c1ccccc1.Cl [PDMP, D-threo-1-Phenyl-2-decanoylamino-3-morpholino-1-propanol.HCl] | soluble in water | –
AS GalT-2 oligonucleotides: 20-mer antisense oligonucleotide 5′-CGCTTGAGCGCAGACATCTT-3′, SEQ ID NO:1, against rat lactosylceramide synthase (GalT-2) (antisense CGCTTGAGCGCAGACATCTT; chemistry not given here) | – | diminished protein levels
